± gives the expanded uncertainty stated by the source.
Assay: cn = amount concentration of the nth substance listed, in mol/dm3
Details: 101 kPa, Liquid, Advanced Conductivity Orion 162A

CCCC[N+](CCCC)(CCCC)CCCC.O=C([O-])C(F)(F)C(F)(F)C(F)(F)C(F)(F)C(F)(F)C(F)(F)C(F)(F)F [tetrabutylammonium perfluorooctanoate] + O
electrical conductivity (283.1 K, c1 = 0.000329): 0.00105 ± 1e-05 S/m
electrical conductivity (283.1 K, c1 = 0.000649): 0.0019 ± 1e-05 S/m
electrical conductivity (283.1 K, c1 = 0.000962): 0.00271 ± 1e-05 S/m
electrical conductivity (283.1 K, c1 = 0.001266): 0.00351 ± 1e-05 S/m
electrical conductivity (283.1 K, c1 = 0.001562): 0.00431 ± 1e-05 S/m
electrical conductivity (283.1 K, c1 = 0.001852): 0.00505 ± 1e-05 S/m
electrical conductivity (283.1 K, c1 = 0.002134): 0.00579 ± 1e-05 S/m
electrical conductivity (283.1 K, c1 = 0.00241): 0.00643 ± 1e-05 S/m
electrical conductivity (283.1 K, c1 = 0.002678): 0.00707 ± 2e-05 S/m
electrical conductivity (283.1 K, c1 = 0.002941): 0.00749 ± 2e-05 S/m
electrical conductivity (283.1 K, c1 = 0.003198): 0.00762 ± 2e-05 S/m
electrical conductivity (283.1 K, c1 = 0.003448): 0.0077 ± 2e-05 S/m
electrical conductivity (283.1 K, c1 = 0.003814): 0.00782 ± 2e-05 S/m
electrical conductivity (283.1 K, c1 = 0.004167): 0.00793 ± 2e-05 S/m
electrical conductivity (283.1 K, c1 = 0.004508): 0.00803 ± 2e-05 S/m
electrical conductivity (283.1 K, c1 = 0.004839): 0.00812 ± 2e-05 S/m
electrical conductivity (283.1 K, c1 = 0.005159): 0.00821 ± 2e-05 S/m
electrical conductivity (283.1 K, c1 = 0.005469): 0.00831 ± 2e-05 S/m
electrical conductivity (288.15 K, c1 = 0.000247): 0.00099 ± 1e-05 S/m
electrical conductivity (288.15 K, c1 = 0.000488): 0.00175 ± 1e-05 S/m
electrical conductivity (288.15 K, c1 = 0.000723): 0.00249 ± 1e-05 S/m
electrical conductivity (288.15 K, c1 = 0.000952): 0.0032 ± 1e-05 S/m
electrical conductivity (288.15 K, c1 = 0.001176): 0.00389 ± 1e-05 S/m
electrical conductivity (288.15 K, c1 = 0.001395): 0.00457 ± 1e-05 S/m
electrical conductivity (288.15 K, c1 = 0.001609): 0.00521 ± 1e-05 S/m
electrical conductivity (288.15 K, c1 = 0.001818): 0.00582 ± 1e-05 S/m
electrical conductivity (288.15 K, c1 = 0.00202): 0.00641 ± 1e-05 S/m
electrical conductivity (288.15 K, c1 = 0.002222): 0.00704 ± 2e-05 S/m
electrical conductivity (288.15 K, c1 = 0.002418): 0.00756 ± 2e-05 S/m
electrical conductivity (288.15 K, c1 = 0.002609): 0.00796 ± 2e-05 S/m
electrical conductivity (288.15 K, c1 = 0.002796): 0.00811 ± 2e-05 S/m
electrical conductivity (288.15 K, c1 = 0.002979): 0.00819 ± 2e-05 S/m
electrical conductivity (288.15 K, c1 = 0.003246): 0.0083 ± 2e-05 S/m
electrical conductivity (288.15 K, c1 = 0.003505): 0.00839 ± 2e-05 S/m
electrical conductivity (288.15 K, c1 = 0.003838): 0.00852 ± 2e-05 S/m
electrical conductivity (288.15 K, c1 = 0.004158): 0.00863 ± 2e-05 S/m
electrical conductivity (288.15 K, c1 = 0.004466): 0.00873 ± 2e-05 S/m
electrical conductivity (288.15 K, c1 = 0.004906): 0.00888 ± 2e-05 S/m
electrical conductivity (288.15 K, c1 = 0.005321): 0.00902 ± 2e-05 S/m
electrical conductivity (293.15 K, c1 = 0.000263): 0.00116 ± 1e-05 S/m
electrical conductivity (293.15 K, c1 = 0.000519): 0.0021 ± 1e-05 S/m
electrical conductivity (293.15 K, c1 = 0.000769): 0.00299 ± 1e-05 S/m
electrical conductivity (293.15 K, c1 = 0.001013): 0.00386 ± 1e-05 S/m
electrical conductivity (293.15 K, c1 = 0.00125): 0.00471 ± 1e-05 S/m
electrical conductivity (293.15 K, c1 = 0.001481): 0.00552 ± 1e-05 S/m
electrical conductivity (293.15 K, c1 = 0.001707): 0.00626 ± 1e-05 S/m
electrical conductivity (293.15 K, c1 = 0.001928): 0.00699 ± 2e-05 S/m
electrical conductivity (293.15 K, c1 = 0.002143): 0.0077 ± 2e-05 S/m
electrical conductivity (293.15 K, c1 = 0.002353): 0.00829 ± 2e-05 S/m
electrical conductivity (293.15 K, c1 = 0.002558): 0.0085 ± 2e-05 S/m
electrical conductivity (293.15 K, c1 = 0.002759): 0.00862 ± 2e-05 S/m
electrical conductivity (293.15 K, c1 = 0.002954): 0.00871 ± 2e-05 S/m
electrical conductivity (293.15 K, c1 = 0.00324): 0.00884 ± 2e-05 S/m
electrical conductivity (293.15 K, c1 = 0.003516): 0.00895 ± 2e-05 S/m
electrical conductivity (293.15 K, c1 = 0.003784): 0.00907 ± 2e-05 S/m
electrical conductivity (293.15 K, c1 = 0.004042): 0.0092 ± 2e-05 S/m
electrical conductivity (293.15 K, c1 = 0.004375): 0.00931 ± 2e-05 S/m
electrical conductivity (293.15 K, c1 = 0.004694): 0.00944 ± 2e-05 S/m
electrical conductivity (293.15 K, c1 = 0.005): 0.00956 ± 2e-05 S/m
electrical conductivity (298.15 K, c1 = 0.000248): 0.00124 ± 1e-05 S/m
electrical conductivity (298.15 K, c1 = 0.00049): 0.00229 ± 1e-05 S/m
electrical conductivity (298.15 K, c1 = 0.000728): 0.0033 ± 1e-05 S/m
electrical conductivity (298.15 K, c1 = 0.000962): 0.0043 ± 1e-05 S/m
electrical conductivity (298.15 K, c1 = 0.00119): 0.00528 ± 1e-05 S/m
electrical conductivity (298.15 K, c1 = 0.001415): 0.00618 ± 1e-05 S/m
electrical conductivity (298.15 K, c1 = 0.001636): 0.00703 ± 2e-05 S/m
electrical conductivity (298.15 K, c1 = 0.001852): 0.00789 ± 2e-05 S/m
electrical conductivity (298.15 K, c1 = 0.002064): 0.00869 ± 2e-05 S/m
electrical conductivity (298.15 K, c1 = 0.002273): 0.00907 ± 2e-05 S/m
electrical conductivity (298.15 K, c1 = 0.002477): 0.00916 ± 2e-05 S/m
electrical conductivity (298.15 K, c1 = 0.002728): 0.00927 ± 2e-05 S/m
electrical conductivity (298.15 K, c1 = 0.003094): 0.00944 ± 2e-05 S/m
electrical conductivity (298.15 K, c1 = 0.003448): 0.00959 ± 2e-05 S/m
electrical conductivity (298.15 K, c1 = 0.003814): 0.00976 ± 2e-05 S/m
electrical conductivity (298.15 K, c1 = 0.004167): 0.00992 ± 2e-05 S/m
electrical conductivity (298.15 K, c1 = 0.004592): 0.01011 ± 2e-05 S/m
electrical conductivity (298.15 K, c1 = 0.005): 0.01028 ± 2e-05 S/m
electrical conductivity (303.15 K, c1 = 0.000263): 0.00148 ± 1e-05 S/m
electrical conductivity (303.15 K, c1 = 0.000519): 0.00267 ± 1e-05 S/m
electrical conductivity (303.15 K, c1 = 0.000769): 0.00383 ± 1e-05 S/m
electrical conductivity (303.15 K, c1 = 0.001013): 0.00497 ± 1e-05 S/m
electrical conductivity (303.15 K, c1 = 0.00125): 0.0061 ± 1e-05 S/m
electrical conductivity (303.15 K, c1 = 0.001481): 0.00717 ± 2e-05 S/m
electrical conductivity (303.15 K, c1 = 0.001707): 0.00814 ± 2e-05 S/m
electrical conductivity (303.15 K, c1 = 0.001928): 0.00909 ± 2e-05 S/m
electrical conductivity (303.15 K, c1 = 0.002143): 0.00964 ± 2e-05 S/m
electrical conductivity (303.15 K, c1 = 0.002353): 0.00979 ± 2e-05 S/m
electrical conductivity (303.15 K, c1 = 0.002558): 0.00989 ± 2e-05 S/m
electrical conductivity (303.15 K, c1 = 0.002759): 0.00998 ± 2e-05 S/m
electrical conductivity (303.15 K, c1 = 0.002954): 0.01005 ± 2e-05 S/m
electrical conductivity (303.15 K, c1 = 0.00324): 0.01016 ± 2e-05 S/m
electrical conductivity (303.15 K, c1 = 0.003516): 0.01026 ± 2e-05 S/m
electrical conductivity (303.15 K, c1 = 0.003784): 0.01035 ± 2e-05 S/m
electrical conductivity (303.15 K, c1 = 0.004042): 0.01044 ± 2e-05 S/m
electrical conductivity (303.15 K, c1 = 0.004375): 0.01055 ± 2e-05 S/m
electrical conductivity (303.15 K, c1 = 0.004694): 0.01065 ± 2e-05 S/m
electrical conductivity (308.15 K, c1 = 0.000309): 0.00189 ± 1e-05 S/m
electrical conductivity (308.15 K, c1 = 0.00061): 0.0034 ± 1e-05 S/m
electrical conductivity (308.15 K, c1 = 0.000904): 0.00484 ± 1e-05 S/m
electrical conductivity (308.15 K, c1 = 0.00119): 0.00633 ± 1e-05 S/m
electrical conductivity (308.15 K, c1 = 0.00147): 0.00774 ± 2e-05 S/m
electrical conductivity (308.15 K, c1 = 0.001744): 0.00909 ± 2e-05 S/m
electrical conductivity (308.15 K, c1 = 0.002011): 0.01001 ± 2e-05 S/m
electrical conductivity (308.15 K, c1 = 0.002273): 0.01017 ± 2e-05 S/m
electrical conductivity (308.15 K, c1 = 0.002423): 0.01022 ± 2e-05 S/m
electrical conductivity (308.15 K, c1 = 0.002578): 0.01026 ± 2e-05 S/m
electrical conductivity (308.15 K, c1 = 0.002728): 0.0103 ± 2e-05 S/m
electrical conductivity (308.15 K, c1 = 0.002876): 0.01034 ± 2e-05 S/m

From the NIST ThermoML archive (doi:10.1021/je900916e)
